Measurements reported in patent EP4635945A1, “CRYSTAL FORM OF PROXIMOD, PREPARATION METHOD THEREFOR, AND USE THEREOF” (Jiankuan (Suzhou) Biotechnology Co., Ltd, priority 2022, dated 2024).

Experiments:
Assay type in all cases: physicochemical
[1] = Hygroscopicity by dynamic vapor sorption (DVS)
Text: (§1) In the examples of the present application, the instrument used for the X-ray powder diffraction test is the D2 Phaser produced by Bruker. The instrument used for the differential scanning calorimetry test is the differential scanning calorimeter DSC 250 produced by TA Instruments. The instrument used for the thermogravimetric analysis is the thermogravimetric analyzer TGA 55 produced by TA Instruments. The instrument used for the FT-IR test is the Fourier infrared spectrometer ID1-summit produced by Thermo. The instrument used for the dynamic vapor sorption test is the DVS Intrinsic produced by Surface Measurement Systems (SMS). The instrument used for the microscopy is the microscope NJF-120A produced by Suzhou Nanguang Electronic Technology Co., Ltd.

[2] = Dynamic solubility in biorelevant media and buffers at 37 °C (HPLC, XRPD of solids)
Experimental: (§2) After 1 hour/2 hours/4 hours/24 hours, the saturated solutions were obtained by filtration. The actual concentrations of the samples in the saturated solutions were determined by high-performance liquid chromatography (HPLC) (the filtered solutions were diluted as needed), and the crystal forms of the solids before and after the experiment were characterized by XRPD to check whether phase changes occurred.

[3] = Mechanical stability: grinding in agate mortar, XRPD; conditions: 50 mg ground with an agate mortar for 5 minutes; hydrochloride
Text: The samples before and after ground were detected by XRPD.

[4] = Intrinsic dissolution of tableted crystal forms; conditions: hydrochloride
[5] = Equilibrium solubility in organic solvents at room temperature (HPLC, XRPD of solids); conditions: 24 hours of equilibrium, hydrochloride
Experimental: as §2, with “24 hours of equilibrium,” for “1 hour/2 hours/4 hours/24 hours,”, “contents” for “actual concentrations”

[6] = Adhesiveness: PE bag adhesive rate; conditions: flipped at 5 rpm, 10 minutes in each direction; hydrochloride
Experimental: The bags were sealed, flipped at a rotational speed of 5 rpm for 10 minutes, and continued to be flipped in a different flipping direction at a fixed rotational speed for 10 minutes. The materials were poured out of the bags, and the materials remaining in the bags were accurately weighed to calculate the adhesive rate.
The adhesive rate was calculated according to the following formula: Adhesive rate = (initialmaterialweight-remainingmaterialweight)/contact surface area. [formula]

[7] = Microscopic morphology and particle size; conditions: microscopy
Text: as §1

[8] = Fluidity: angle of repose, bulk and tap density, Hausner ratio; conditions: hydrochloride
Experimental: This experiment was performed by using a tap density tester according to the fixed-volume method. The specific operations are as follows: The weighed powder, with a volume of 50 mL, was loaded into a graduated cylinder, and the graduated cylinder was secured onto a support. The graduated cylinder was set to be vibrated at 55 ± 5 vibrations per minute for 6-8 minutes. The volume change of the powder was measured in a measuring cup. The ratio of the weight of the powder to the volume (50 mL) before tapping is the bulk density of the powder, and the ratio of the weight of the powder to the volume after tapping is the tapped density of the powder.
The Hausner ratio and the compression degree were converted in the following methods. Hausner ratio = tap density/bulk density [formula] Compression degree = (tapdensity−bulkdensity)/tap density [formula]
This experiment was performed by a pouring method, and the angles of repose of the drug substances of the two crystal forms were measured in combination with a residual cone method to analyze their fluidities. The specific operations are as follows: The powder was poured onto the center of a disk with a specific diameter, and when the material on the slope of the powder pile began to flow freely out along the periphery of the disk, the pouring of the powder was stopped. The height (h) of the cone was measured, and the angle of repose was calculated in combination with the diameter (2r) of the disk, that is, tanQ = h/r.

[9] = Compressibility: tableting, hardness and tensile strength; conditions: die with a diameter of 6 mm
Experimental: In this experiment, a die with a diameter of 6 mm was used. The drug substance and the drug substance + excipient were tableted under the same pressure, respectively. After the elasticity of the prepared tablets was restored, the radial crushing force F, diameter D, and thickness L of the tablets were measured. The tensile strength of the tablets was calculated according to the following formula: Ts = 2F/IIDL.

[10] = FaSSIF (pH of 8.0), 1 hour, hydrochloride
[11] = FaSSIF (pH of 8.0), 2 hours, hydrochloride
[12] = pH = 4.0 acetic acid-sodium acetate buffer, 1 hour, hydrochloride
[13] = pH = 4.0 acetic acid-sodium acetate buffer, 2 hours, hydrochloride
[14] = pH = 4.0 acetic acid-sodium acetate buffer, 4 hours, hydrochloride
[15] = pH = 4.0 acetic acid-sodium acetate buffer, 24 hours, hydrochloride
[16] = pH = 6.8 phosphate buffer, 4 hours
[17] = pH = 6.8 phosphate buffer, 24 hours

- Weight gain by water absorption (DVS) ([1]; 25.6 °C/90% RH): 0.30%
- Hygroscopicity description ([1]; DVS, 90% RH, hydrochloride): slightly hygroscopic
- Weight gain by water absorption (DVS) ([1]; vapor sorption at 25 °C/90% RH): 0.26%
- Crystal form of the solid [2, 10]: Free alkali
- Solubility [2, 10]: 70 µg/mL
- Crystal form of the solid [2, 11]: Free alkali
- Solubility [2, 11]: 200 µg/mL
- Crystal form of the solid ([2]; FaSSIF (pH of 8.0), 4 hours): Free alkali
- Solubility ([2]; FaSSIF (pH of 8.0), 4 hours, hydrochloride): 410 µg/mL
- Crystal form of the solid ([2]; FaSSIF (pH of 8.0), 24 hours): Free alkali
- Solubility ([2]; FaSSIF (pH of 8.0), 24 hours, hydrochloride): 100 µg/mL
- Solubility ([2]; FeSSIF (pH of 5.0), 1 hour, hydrochloride): 2580 µg/mL
- Solubility ([2]; FeSSIF (pH of 5.0), 2 hours, hydrochloride): 2300 µg/mL
- Solubility ([2]; FeSSIF (pH of 5.0), 4 hours, hydrochloride): 2560 µg/mL
- Crystal form of the solid ([2]; FeSSIF (pH of 5.0), 24 hours): no crystal form change
- Solubility ([2]; FeSSIF (pH of 5.0), 24 hours, hydrochloride): 3460 µg/mL
- Solubility ([2]; SGF (pH of 1.0), 1 hour, hydrochloride): 310 µg/mL
- Solubility ([2]; SGF (pH of 1.0), 2 hours, hydrochloride): 270 µg/mL
- Solubility ([2]; SGF (pH of 1.0), 4 hours, hydrochloride): 290 µg/mL
- Solubility ([2]; SGF (pH of 1.0), 24 hours, hydrochloride): 310 µg/mL
- Crystal form of the solid ([2]; Water, 1 hour, hydrochloride): B + F
- Solubility ([2]; Water, 1 hour, hydrochloride): 1910 µg/mL
- Crystal form of the solid ([2]; Water, 2 hours, hydrochloride): B + F
- Solubility ([2]; Water, 2 hours, hydrochloride): 2430 µg/mL
- Crystal form of the solid ([2]; Water, 4 hours, hydrochloride): B + F
- Solubility ([2]; Water, 4 hours, hydrochloride): 2240 µg/mL
- Crystal form of the solid ([2]; Water, 24 hours, hydrochloride): B + F
- Solubility ([2]; Water, 24 hours, hydrochloride): 2610 µg/mL
- Solubility ([2]; pH = 1.0 hydrochloric acid aqueous solution, 1 hour, hydrochloride): 270 µg/mL
- Solubility ([2]; pH = 1.0 hydrochloric acid aqueous solution, 2 hours): 280 µg/mL
- Solubility ([2]; pH = 1.0 hydrochloric acid aqueous solution, 4 hours, hydrochloride): 280 µg/mL
- Solubility ([2]; pH = 1.0 hydrochloric acid aqueous solution, 24 hours, hydrochloride): 300 µg/mL
- Crystal form of the solid [2, 12]: B + F
- Solubility [2, 12]: 1910 µg/mL
- Crystal form of the solid [2, 13]: B + F
- Solubility [2, 13]: 2350 µg/mL
- Crystal form of the solid [2, 14]: B + F
- Solubility [2, 14]: 1990 µg/mL
- Crystal form of the solid [2, 15]: B + F
- Solubility [2, 15]: 2310 µg/mL
- Crystal form of the solid ([2]; pH = 6.8 phosphate buffer, 1 hour): Free alkali
- Solubility ([2]; pH = 6.8 phosphate buffer, 1 hour, hydrochloride): Not detected
- Crystal form of the solid ([2]; pH = 6.8 phosphate buffer, 2 hours): Free alkali
- Crystal form of the solid [2, 16]: Free alkali
- Solubility [2, 16]: Not detected
- Crystal form of the solid [2, 17]: Free alkali
- Solubility [2, 17]: Not detected
- solubility at 2 h ([2]; phosphate buffer, pH 6.8, aqueous buffer, thermodynamic from solid, pH = 6.8 phosphate buffer, 2 hours): 0.28 µg/mL
- Dissolution amount ([4]; Medium Water, 5 min): Not detected
- Dissolution amount ([4]; Medium Water, 10 min): 0.0002 mg/mL
- Dissolution amount ([4]; Medium Water, 30 min): 0.0003 mg/mL
- Dissolution amount ([4]; Medium Water, 45 min): 0.0009 mg/mL
- Dissolution amount ([4]; Medium Water, 60 min): 0.0003 mg/mL
- Dissolution amount ([4]; Medium Water, 90 min): 0.0004 mg/mL
- Dissolution amount ([4]; Medium pH = 4.0, flow rate 4 mL/minute, 5 min): 0.0307 mg/mL
- Dissolution amount ([4]; Medium pH = 4.0, flow rate 4 mL/minute, 10 min): 0.0404 mg/mL
- Dissolution amount ([4]; Medium pH = 4.0, flow rate 4 mL/minute, 30 min): 0.0461 mg/mL
- Dissolution amount ([4]; Medium pH = 4.0, flow rate 4 mL/minute, 45 min): 0.0488 mg/mL
- Dissolution amount ([4]; Medium pH = 4.0, flow rate 4 mL/minute, 60 min): 0.0469 mg/mL
- Dissolution amount ([4]; Medium pH = 4.0, flow rate 4 mL/minute, 90 min): 0.0487 mg/mL
- Solubility ([5]; Acetone): 32 µg/mL
- Solubility ([5]; Ethanol): 7610 µg/mL
- Solubility ([5]; Ethyl acetate): Not detected
- PE bag adhesive rate [6]: 0.0003 g/cm^2
- Maximum particle size [7]: less than 100 µm
- Length/short diameter ratio ([7]; hydrochloride): 1-6
- Microscopic morphology ([7]; hydrochloride): rod-shaped
- Compression degree ([8]; (tap density − bulk density)/tap density): 58.0%
- Bulk density ([8]; fixed-volume method, 50 mL): 0.14 g/mL
- Tap density ([8]; fixed-volume method, after tapping): 0.33 g/mL
- Angle of repose ([8]; pouring method with residual cone method): 64.95 °
- Hausner ratio ([8]; tap density/bulk density): 2.4
- Tensile strength Ts ([9]; Ts = 2F/IIDL, hydrochloride): 0.10
- Hardness ([9]; same pressure, hydrochloride): 3 N
- Experimental phenomena ([9]; tableting): Severe punch sticking
Structure (SMILES): CCCc1nc(-c2ccc(-c3ccc(CCC(N)(CO)CO)cc3)cc2)co1.Cl [Crystal form B, 2-amino-2-{2-(4'-(2-propyloxazol-4-yl)-[1,1'-biphenyl]-4-yl)ethyl}-1,3-propanediol hydrochloride]
- Crystal form after ground (XRPD) [3]: partially crystal transformed into the crystal form A
